Experiment [1] deals with DU145-TXR drug-resistant prostate cancer cells. The experiment can be described thus: MTT cytotoxicity assay, DU145-TXR cells. Format: cell-based. The following applies: for cell toxicity: equivalent concentrations, 48 hours. The procedure:
Cells were cultured at 37° C. in a humidified atmosphere containing 5% CO2. […] Cytotoxicity was calculated using the following equation: Cell Viability (%)=(ATest/Acontrol)×100%. Furthermore, IC50 was calculated with SigmaPlot software based on a dose-response curve.

Experiment [2] has as its system DU145-TXR cells. Nature of the experiment: Intracellular ROS, H2DCFDA dye method. Format: cell-based. The note with it: 100 μM, positive control. The procedure: The generation of ROS was determined with a 2′,7′-dichlorodihydrofluorescein diacetate (H2DCFDA) dye method. Briefly, cells were seeded in a dark-walled, clear-bottomed 96-well plate with 50,000 cells per well and incubated at 37° C. overnight before study. Cells were incubated with 20 μM H2DCFDA in Hank's Buffered Salt Solution (HBSS, pH=7.4) for 30 minutes at 37° C. in the dark, and treated with different formulations.

Experiment [3] relates to DU145-TXR cells. The experiment can be described thus: Endoplasmic reticulum (ER) staining. The following applies: 0.5 μM, 8 hours.

As for `[Cl][Cu][Cl]` [CuCl2, copper chloride], the cell toxicity result in experiment [1] is on record as “did not show significant cell toxicity”.

Turning to `CCN(CC)C(=S)S` [DDC-Na, sodium diethyldithiocarbamatetrihydrate], the cell toxicity result in experiment [1] was “did not show significant cell toxicity”.

Take `OO` [H2O2]: in experiment [2], the ROS level entry is listed as “increased”.

Broadly, the IC50 is the concentration that gives 50% inhibition. A lower IC50 goes with greater potency. For `CC(=O)O[C@H]1C(=O)[C@@]2(C)[C@H]([C@H](OC(=O)c3ccccc3)[C@]3(O)C[C@H](OC(=O)[C@H](O)[C@@H](NC(=O)c4ccccc4)c4ccccc4)C(C)=C1C3(C)C)[C@]1(OC(C)=O)CO[C@@H]1C[C@@H]2O` [paclitaxel], in experiment [3], the “ER structure (ER-specific dye staining)” value is reported as “typical reticulate structure”. For the same molecule, half-maximal inhibition in experiment [1] (48 hours of treatment) (IC50) required 2.58 µM.
